Laboratory results published in ChEMBL document CHEMBL1201862, “PubChem BioAssay data set” (2004).
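All cell lines were grown in 96-well plates and treated with compound for 48 hours. Here, GI50 denotes the concentration required for 50% inhibition of growth.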 The source made the active and inactive calls. No stated cut-off is given here; in the data, active = GI50 up to about 1.1 µM and inactive = higher.

How the values were obtained:
Experiment in all cases: DTP human tumour cell line panel, 48 h
U-251 = test system: U-251
HT-29 = test system: HT-29
SK-MEL-28 = test system: SK-MEL-28
Malme-3M = test system: Malme-3M
UO-31 = test system: UO-31
M14 = test system: M14
EKVX = test system: EKVX
UACC-257 = test system: UACC-257
COLO 205 = test system: COLO 205
OVCAR-5 = test system: OVCAR-5
MOLT-4 = test system: MOLT-4
NCI-H226 = test system: NCI-H226
ACHN = test system: ACHN
SF-295 = test system: SF-295
SN12C = test system: SN12C
SF-539 = test system: SF-539
NCI-H23 = test system: NCI-H23
OVCAR-3 = test system: OVCAR-3
LOX IMVI = test system: LOX IMVI
RPMI-8226 = test system: RPMI-8226

Measured: GI50

C/C=C/C(C#N)O[Si](C)(C)C (stereo not drawn)
inactive: U-251 > 100 µM | HT-29 > 100 µM | SK-MEL-28 > 100 µM | Malme-3M > 100 µM | UO-31 > 100 µM | M14 > 100 µM | EKVX > 100 µM | UACC-257 > 100 µM | COLO 205 > 100 µM | OVCAR-5 > 100 µM | MOLT-4 > 100 µM | NCI-H226 > 100 µM | ACHN > 100 µM | SF-295 > 100 µM | SN12C > 100 µM | SF-539 > 100 µM | NCI-H23 > 100 µM | OVCAR-3 > 100 µM

CCOC(=O)C1C(=O)CN2CCc3c([nH]c4ccccc34)C12C(=O)OCC (stereo not drawn)
inactive: U-251 > 100 µM | HT-29 > 100 µM | SK-MEL-28 > 100 µM | Malme-3M > 100 µM | UO-31 > 100 µM | M14 > 100 µM | EKVX > 100 µM | UACC-257 > 100 µM | COLO 205 > 100 µM | OVCAR-5 > 100 µM | MOLT-4 > 100 µM | NCI-H226 > 100 µM | ACHN > 100 µM | SF-295 > 100 µM | SN12C > 100 µM | SF-539 > 100 µM | NCI-H23 > 100 µM | LOX IMVI > 100 µM | OVCAR-3 > 100 µM

CCOC(=O)c1ccc(C(=O)C(C(C)=O)C(=O)OC(C)(C)C)[nH]1 (stereo not drawn)
inactive: U-251 > 100 µM | HT-29 > 100 µM | SK-MEL-28 > 100 µM | Malme-3M > 100 µM | UO-31 > 100 µM | M14 > 100 µM | EKVX > 100 µM | COLO 205 > 100 µM | RPMI-8226 > 100 µM | OVCAR-5 > 100 µM | MOLT-4 > 100 µM | NCI-H226 > 100 µM | ACHN > 100 µM | SF-295 > 100 µM | SN12C > 100 µM | NCI-H23 > 100 µM | LOX IMVI > 100 µM | OVCAR-3 > 100 µM

CCCCCCNC(=O)C1=C(C)NC(C)=C(C(=O)NCCCCCC)C1
inactive: U-251 > 100 µM | HT-29 89.3 µM | SK-MEL-28 > 100 µM | UO-31 63.8 µM | M14 > 100 µM | EKVX > 100 µM | UACC-257 > 100 µM | COLO 205 > 100 µM | RPMI-8226 > 100 µM | OVCAR-5 > 100 µM | MOLT-4 > 100 µM | NCI-H226 > 100 µM | ACHN > 100 µM | SF-295 > 100 µM | SN12C > 100 µM | SF-539 > 100 µM | NCI-H23 > 100 µM | LOX IMVI > 100 µM | OVCAR-3 > 100 µM

Cc1cc(O)nc(NN2C(Cl)C(=O)C2c2cccc([N+](=O)[O-])c2)n1 (stereo not drawn)
inactive: U-251 20 µM | HT-29 19.6 µM | SK-MEL-28 17.1 µM | UO-31 36.6 µM | M14 17.3 µM | EKVX 63.4 µM | UACC-257 29 µM | COLO 205 22.7 µM | RPMI-8226 13.7 µM | OVCAR-5 > 100 µM | MOLT-4 14.3 µM | NCI-H226 12.3 µM | ACHN 29.2 µM | SN12C 18.1 µM | NCI-H23 20.7 µM | LOX IMVI 12.3 µM | OVCAR-3 14.8 µM

CC(=O)c1cccc(NC(=O)C(=O)C(C(=O)c2ccccc2F)C2OC(=O)c3ccccc32)c1 (stereo not drawn)
inactive: U-251 19.8 µM | HT-29 35.9 µM | SK-MEL-28 50.9 µM | UO-31 34.4 µM | M14 92.7 µM | EKVX 43.4 µM | UACC-257 73.5 µM | COLO 205 18.6 µM | RPMI-8226 20.3 µM | OVCAR-5 64.3 µM | MOLT-4 22.8 µM | NCI-H226 19.1 µM | ACHN 37.7 µM | SF-295 42.6 µM | SN12C 27.1 µM | SF-539 > 10 µM | NCI-H23 33.8 µM | LOX IMVI 19.5 µM

COc1cccc(-c2[nH]c3cc4c(cc3c(=O)c2C(=O)O)OCO4)c1
inactive: U-251 37.2 µM | HT-29 34.2 µM | SK-MEL-28 37 µM | UO-31 49.2 µM | M14 26 µM | EKVX 79.1 µM | UACC-257 > 100 µM | COLO 205 26.5 µM | RPMI-8226 41.2 µM | OVCAR-5 > 100 µM | MOLT-4 24.2 µM | NCI-H226 43.5 µM | ACHN 86.7 µM | SF-295 23.8 µM | SN12C 40.6 µM | SF-539 28.8 µM | NCI-H23 31.9 µM | LOX IMVI 42.3 µM | OVCAR-3 44.4 µM
